Reference: article PMC3010267 (Analytical biochemistry, 2010)
pKd: −log10 of the molar value.

What was measured:
[1] = molecular target: β1 adrenergic receptor (β1AR*, with mutations R68S, Y227A, A282L, F237A, and F338M) (Meleagris gallopavo, UniProt P07700, A282L/F327A/F338M/R68S/Y227A); assay: biochemical; format: binding, turkey
[2] = molecular target: A2A adenosine receptor (A2AR*, with mutations A54L, T88A, K122A, and V239A) (Homo sapiens, UniProt P29274, A54L/K122A/T88A/V239A); assay: Biacore kinetic analysis of antagonists binding to capture-coupled A2AR*
[3] = molecular target: β1 adrenergic receptor (β1AR*) (Meleagris gallopavo, UniProt P07700, A282L/F327A/F338M/R68S/Y227A); assay: biochemical; format: binding, turkey

| SMILES | kd [1] | pKd [3] | further results |
| --- | --- | --- | --- |
| CC(CCc1ccccc1)NCC(O)c1ccc(O)c(C(N)=O)c1 (centres unmarked) [labetalol] |  |  | pKd [1]: 7.02 |
| CC(C)(C)NCC(O)c1cc(Cl)c(N)c(Cl)c1 (centres unmarked) [clenbuterol] | 1.33(5) × 10^−1 s^−1 |  | pKd [1]: 6.27; ka [1]: 2.47(9) × 10^5 M^−1s^−1 |
| CCCn1c(=O)[nH]c2nc(-c3ccc(S(=O)(=O)O)cc3)[nH]c2c1=O [PSB 1115] |  |  | pKd ([2]; A2AR, approximate value given in text for the displacement-regeneration compound): ~6.00 |
| C[C@@H](CO)NC(=O)[C@@H]1C=C2c3cccc4[nH]cc(c34)C[C@H]2N(C)C1 [ergonovine] |  | 4.08 |  |
| C=CCc1ccccc1OCC(O)CNC(C)C (centres unmarked) [alprenolol] | 2.49(7) × 10^−2 s^−1 |  | pKd [1]: 7.72; ka [1]: 1.31(4) × 10^6 M^−1s^−1 |
| NCCc1c[nH]c2ccc(O)cc12 [serotonin] |  | 4.85 |  |
| Nc1nc2c(cnn2CCc2ccccc2)c2nc(-c3ccco3)nn12 [SCH 58261] |  |  | kd [2]: 6.6(2) × 10^−2 s^−1; ka ([2]; biacore capture-coupled a2ar*): 1.00(3) × 10^6 M^−1s^−1 |
| CC(C)(C)NC[C@H](O)COc1nsnc1N1CCOCC1 [timolol] | 6.94(8) × 10^−3 s^−1 |  |  |
| COc1ccc(OC)c(C(O)C(C)NC(C)(C)C)c1 (centres unmarked) [butoxamine] |  | 5.29 |  |
| CC(C)NCC(O)COc1ccc(CC(N)=O)cc1 (centres unmarked) [atenolol] |  | 4.31 |  |
| OC(CNCC(O)C1CCc2cc(F)ccc2O1)C1CCc2cc(F)ccc2O1 (centres unmarked) [nebivolol] | 1.50(3) × 10^−2 s^−1 |  |  |
| CC[C@@H](CO)NC(=O)[C@@H]1C=C2c3cccc4[nH]cc(c34)C[C@H]2N(C)C1 [methylergonovine] |  | 4.30 |  |
